Where “and” joins values, the source holds several entries; their conditions need not be identical. Equal entries are not always repeated.
How the values were obtained:
[1] = test system: intracranial ST1360B PDX tumors; assay: Intracranial ST1360B PDX tumor model; type: in vivo, mouse
Method: The viability of total cells was greater than 80%. […] The cells were kept on ice until inoculation.
Drugs were diluted in sterile saline before each dosing. […] The dosing volume was 5.0 mL/kg.
The fixative: tissue ratio was at least 20:1.
Image analysis was performed using Horos.

[2] = test system: HER2 overexpressing cells (SK-BR-3, BT-474, N87); assay: Drug combinations with PB4188 in vitro (isobolograms); type: cell-based, human; conditions: in the presence of HRG, matrigel or HRG stress concentrations
Method: Moreover, combination with chemotherapeutic drugs and cyclin inhibitors were tested. Combinations were tested on HER2 overexpressing cells growing in the presence of HRG in matrigel (SK-BR-3 and BT-474) or in the presence of HRG stress concentrations (N87 and SK-BR-3 as described in proliferation assays). The inhibitory effect of drug combinations was tested by imaging or by measuring proliferation using Alamar Blue as described herein before. […] The extent of growth inhibition obtained with each combination was calculated. […] The inhibition values of the combination experiments were used by CHALICE™ Analyzer software to generate the isobolograms.

[3] = compared to vehicle treated mice

## MCLA-128: bispecific antibody MCLA-128 directed against HER2 and HER3
[1]; MRI, scale 0-4 (0 no, 4 massive brain edema), individual mice, day 3 post initiation of therapy
  Brain edema score day 3: 2 (2×) and 0 (2×) and 1 (4×)
[1]; MRI, scale 0-4, individual mice, day 7
  Brain edema score day 7: 2 (4×) and 0 (2×) and 3 and 1
[1]; MRI, scale 0-4, individual mice, day 10
  Brain edema score day 10: 2 (4×) and 0 (2×) and 3 and 1
[1]; MRI, scale 0-4, individual mice, day 14
  Brain edema score day 14: 1 (4×) and 0 and 3 (3×)
[1]; MRI, scale 0-4, individual mice, day 21
  Brain edema score day 21: 2 (2×) and 1 (3×) and 3 (3×)
[1]; MRI, scale 0-4, individual mice, day 28
  Brain edema score day 28: 3 (4×) and 4
[1]; MRI, scale 0-4, individual mice, day 35
  Brain edema score day 35: 3
[1]; MRI, scale 0-4, individual mice, day 42
  Brain edema score day 42: 3
[1]; MRI, scale 0-4, individual mice, last MR scan
  Brain edema final score: 3 (4×) and 1 (3×) and 4
[1]; [3]
  tumor growth by T2-weighted MRI: tumor growth delay
[1]; post therapy initiation, T-DM1 10 mg/kg qwk, MCLA-128 25 mg/kg twice wk, i.v., vehicle 13 days
  median survival: 29 days

## Cc1nc(NC(=O)N2CCC[C@H]2C(N)=O)sc1-c1ccnc(C(C)(C)C(F)(F)F)c1 [BYL719]
[2]
  drug combination with PB4188 (isobologram analysis): synergistic

## CS(=O)(=O)CCNCc1ccc(-c2ccc3ncnc(Nc4ccc(OCc5cccc(F)c5)c(Cl)c4)c3c2)o1 [lapatinib]
[2]
  drug combination with PB4188 (isobologram analysis): synergistic

## O=C(CCCCCCC(=O)Nc1ccccc1)NO [vorinostat]
[2]
  drug combination with PB4188 (isobologram analysis): synergistic

## CO[C@H]1C[C@@H]2CC[C@@H](C)[C@@](O)(O2)C(=O)C(=O)N2CCCC[C@H]2C(=O)O[C@H]([C@H](C)C[C@@H]2CC[C@@H](OCCO)[C@H](OC)C2)CC(=O)[C@H](C)/C=C(\C)[C@@H](O)[C@@H](OC)C(=O)[C@H](C)C[C@H](C)/C=C/C=C/C=C/1C [everolimus]
[2]
  drug combination with PB4188 (isobologram analysis): synergistic

## CCOc1cc2ncc(C#N)c(Nc3ccc(OCc4ccccn4)c(Cl)c3)c2cc1NC(=O)/C=C/CN(C)C [neratinib]
[2]
  drug combination with PB4188 (isobologram analysis): synergistic

## CC(=O)O[C@H]1C(=O)[C@@]2(C)[C@H]([C@H](OC(=O)c3ccccc3)[C@]3(O)C[C@H](OC(=O)[C@H](O)[C@@H](NC(=O)c4ccccc4)c4ccccc4)C(C)=C1C3(C)C)[C@]1(OC(C)=O)CO[C@@H]1C[C@@H]2O [paclitaxel]
[2]
  drug combination with PB4188 (isobologram analysis): synergistic

## trastuzumab-emtansine [T-DM1, reference compound]
[1]; [3]
  tumor growth by T2-weighted MRI: Tumor growth was inhibited
[1]; compared to vehicle treated mice, p<0.05
  mean tumor volume 10 days post therapy: significantly smaller

## NC1(c2ccc(-c3nc4ccn5c(=O)[nH]nc5c4cc3-c3ccccc3)cc2)CCC1 [MK-2206]
[2]
  drug combination with PB4188 (isobologram analysis): synergistic

— US20210206875A1, “ERBB-2 TARGETING AGENT AND A BISPECIFIC ANTIBODY WITH ANTIGEN-BINDING SITES THAT BIND AN EPITOPE ON AN EXTRACELLULAR PART OF ERB-2 AND ERBB-3, FOR TREATMENT OF AN INDIVIDUAL WITH AN ERBB-2, ERBB-2/ERBB-3 POSITIVE TUMOUR” (Merus N.V., priority 2017, published 2021)
